Measurements: patent US20170158702A1, “MULTIVALENT RAS BINDING COMPOUNDS” (KYRAS THERAPEUTICS, INC., priority 2015, published 2017)
Counter-ions that a name gives are not always drawn.

Columns and labels:
Format in all cases: cell-based
[1] = system: MIA PaCa-2; assay: Viability assay with MIA PaCa-2; conditions: MIA PaCa-2, viability assay per Example 57
In short: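 MIA PaCa-2 cells were seeded at 1200/well, allowed to adhere overnight, then treated in triplicate with 9-point 2-fold compound dilutions at 0.5% final DMSO. Viability was measured as cellular ATP by CellTiter-Glo luminescence 72 h after compound addition.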

[2] = system: NCI-H460; assay: Viability assay with NCI-H460 (CellTiter-Glo cytotoxicity assay, 72 h); conditions: NCI-H460 cell line, 72 h after compounds addition
In short: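 NCI-H460 cells, RPMI 1640 + 10% FBS, seeded 1200/well and adhered overnight, then exposed to compounds at 9 points, 2-fold dilution, in triplicate, 0.5% DMSO final. Cellular ATP measured by CellTiter-Glo luminescence 72 h after addition.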

[3] = system: NCI-H2023; assay: Viability assay with NCI-H2023; conditions: NCI-H2023, viability assay per Example 57
Method: NCI-H460 (Epithelial lung tissue; carcinoma; large cell lung cancer) were cultured in RPMI Medium 1640 (Invitrogen-22400105) supplemented with 10% fetal bovine serum (FBS; Invitrogen-10099141). All the cell lines were maintained in a humidified incubator at 37° C. with 5% CO2. Cell culture media and supplements were purchased from Invitrogen, and tissue culture flasks were purchased from Corning, 96-well plates were purchased from Greiner. CellTiter-Glo Luminescent Cell Viability Assay kits were purchased from Promega (Promega-G7573), cells counter Vi-Cell was purchased from Beckman, D300e digital dispenser was purchased from Tecan, detection instrument Envision was purchased from PerkinElmer.
Paclitaxel was purchased from SELLECK, test compounds, such as any one of the compounds disclosed herein, attained solubility in DMSO and when diluted into culture media. DMSO, solutions containing the test compounds, and culture media were warmed to 37° C. or room temperature for the solution preparation and dilutions.
NCI-H460 Cell line were seeded in 96-well plates (1200/well) and allowed to adhere to overnight (100 uL/well), for drug treatments with 2 fold dilution, 9 dose points, triplicates or vehicle control, compound stock solutions were prepared in DMSO and use D300e digital dispenser to add compounds to the wells to give the indicated final drug concentrations. Final DMSO concentration was 0.5%. Cellular ATP concentrations were assessed by using the CellTiter-Glo Cell Viability Assay as per the manufacturer's instructions 72 h after compounds addition. Additional cells lines were assayed with any one of the compounds disclosed herein according to the procedures described for the viability assay with NCI-H460.
A viability assay with NCI-H2023 (stage 3A, adenocarcinoma; non-small cell lung cancer) was performed with compounds listed in Table 16 according to the procedures described in Example 57.

[4] = system: HT-29; assay: Viability assay with HT-29; conditions: HT-29, viability assay per Example 57
In short: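 Cells seeded 1200/well, adhered overnight, then treated with 9-point 2-fold compound dilutions in triplicate (0.5% final DMSO). Viability taken as cellular ATP by CellTiter-Glo luminescence 72 h after compound addition.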

Compound	EC50 [1]	EC50 [3]	EC50 ([1]; Homo sapiens)	EC50 [4]	EC50 [2]	EC50 ([2]; Homo sapiens)
NCCCn1cc(-c2ccc(OC(F)(F)F)cc2)c2cc(CN3CC4CCC(C3)N4Cc3c(Cl)cccc3Cl)ccc21 [C32; HCl]	≤ 5 µM	≤ 5 µM	–	–	≤ 5 µM	–
Cc1ccc(-c2cn(CCCN)c3ccc(CN4CCN(Cc5c(Cl)cccc5Cl)CC4)cc23)cc1 [C51; HCl]	≤ 5 µM	≤ 5 µM	–	–	≤ 5 µM	–
NCCCn1cc(-c2ccccc2)c2cc(CN3CCN(Cc4c(Cl)cccc4Cl)CC3)ccc21 [C37; HCl]	5 to 10 µM	5 to 10 µM	–	–	≤ 5 µM	–
NCCNCCCn1cc(-c2ccc(OC(F)(F)F)cc2)c2cc(CN3CCN(Cc4c(Cl)cccc4Cl)CC3)ccc21 [C26; HCl]	≤ 5 µM	≤ 5 µM	–	–	≤ 5 µM	–
NC1(C(=O)NCCCn2cc(-c3ccc(OC(F)(F)F)cc3)c3cc(CN4CCNCC4)ccc32)CCNCC1 [C48; HCl]	> 30 µM	> 30 µM	–	–	> 30 µM	–
NC1(C(=O)NCCCn2cc(-c3ccc(OC(F)(F)F)cc3)c3cc(CN4CCN(Cc5c(Cl)cccc5Cl)CC4)ccc32)CCNCC1 [C41; Trifluoroacetic acid]	≤ 5 µM	≤ 5 µM	–	–	≤ 5 µM	–
NC1(C(=O)NCCCn2cc(-c3ccc(OC(F)(F)F)cc3)c3cc(CN4CCN(c5ccccc5)CC4)ccc32)CCNCC1 [C38; HCl]	≤ 5 µM	≤ 5 µM	–	–	≤ 5 µM	–
NCC(=O)NCCCn1cc(-c2ccc(OC(F)(F)F)cc2)c2cc(CN3CCN(Cc4c(Cl)cccc4Cl)CC3)ccc21 [C52; HCl]	≤ 5 µM	≤ 5 µM	–	–	≤ 5 µM	–
NC1(C(=O)NCCCn2cc(-c3ccccc3)c3cc(CN4CCN(Cc5c(Cl)cccc5Cl)CC4)ccc32)CCNCC1 [C24; HCl]	≤ 5 µM	≤ 5 µM	–	–	≤ 5 µM	–
NCCCn1cc(-c2ccc(F)cc2)c2cc(CN3CCN(Cc4c(Cl)cccc4Cl)CC3)ccc21 [C23; Formic acid]	≤ 5 µM	≤ 5 µM	–	–	≤ 5 µM	–
COc1cccc(C(C)(C)N2CCN(Cc3ccc4c(c3)c(-c3ccc(OC(F)(F)F)cc3CN)cn4CCCN)CC2)c1 [C283; HCl]	≤ 5 µM	–	–	≤ 5 µM	≤ 5 µM	–
NCc1ccc(-n2cc(-c3ccc(OC(F)(F)F)cc3)c3cc(CN4CCN(Cc5ccccc5Cl)CC4)ccc32)cn1 [C218; Formic Acid]	≤ 5 µM	–	–	≤ 5 µM	≤ 5 µM	–
NCCCn1cc(-c2ccc(OC(F)(F)F)cc2)c2cc(CN3CCC(CC(F)(F)F)CC3)ccc21 [C130; HCl]	≤ 5 µM	–	–	≤ 5 µM	≤ 5 µM	–
FC(F)(F)Oc1ccc(-c2cn(C3CCNCC3)c3ccc(CN4CCC(Cc5ccccc5Cl)CC4)cc23)cc1 [C225; HCl]	≤ 5 µM	–	–	≤ 5 µM	≤ 5 µM	–
CNCc1cc(OC(F)(F)F)ccc1-c1cn(CCCN)c2ccc(CN3CCN(Cc4ccccc4Cl)CC3)cc12 [C238; HCl]	≤ 5 µM	–	–	≤ 5 µM	≤ 5 µM	–
NCCCn1cc(-c2ccc(OC(F)(F)F)cc2CN)c2cc(CN3CCC4(CC3)CCN(Cc3ccccc3Cl)C4)ccc21 [C249; Formic Acid]	≤ 5 µM	–	–	≤ 5 µM	≤ 5 µM	–
NCCc1cccc(-n2cc(-c3ccc(OC(F)(F)F)cc3)c3cc(CN4CCN(Cc5ccccc5Cl)CC4)ccc32)c1 [C235; Formic Acid]	≤ 5 µM	–	–	≤ 5 µM	≤ 5 µM	–

Now from value to compound, other results behind:

EC50 [1]	EC50 [3]	EC50 ([1]; Homo sapiens)	EC50 [4]	Compound	EC50 [2]	EC50 ([2]; Homo sapiens)
≤ 5 µM	≤ 5 µM	–	–	NC1(C(=O)NCCCn2cc(-c3ccc(OC(F)(F)F)cc3)c3cc(CN4CCN(Cc5c(F)cccc5F)CC4)ccc32)CCNCC1 [C55; HCl]	≤ 5 µM	–
–	5 to 10 µM	≤ 5 µM	–	CCOC(=O)CNCCCn1cc(-c2ccc(OC(F)(F)F)cc2)c2cc(CN3CCN(Cc4c(Cl)cccc4Cl)CC3)ccc21 [Compound C28, ethyl 2-(3-(5-((4-(2,6-dichlorobenzyl)piperazin-1-yl)methyl)-3-(4-(trifluoromethoxy)phenyl)-1H-indol-1-yl)propylamino)acetate]	–	5 to 10 µM
≤ 5 µM	≤ 5 µM	–	–	N#Cc1ccc(-c2cn(CCCN)c3ccc(CN4CCN(Cc5c(Cl)cccc5Cl)CC4)cc23)cc1 [C33; HCl]	≤ 5 µM	–
≤ 5 µM	≤ 5 µM	–	–	NC1(C(=O)NCCCCn2cc(-c3ccc(OC(F)(F)F)cc3)c3cc(CN4CCN(Cc5c(Cl)cccc5Cl)CC4)ccc32)CCNCC1 [C35; HCl]	≤ 5 µM	–
≤ 5 µM	≤ 5 µM	–	–	N#Cc1cccc(-c2cn(CCCN)c3ccc(CN4CCN(Cc5c(Cl)cccc5Cl)CC4)cc23)c1 [C13; HCl]	≤ 5 µM	–
≤ 5 µM	≤ 5 µM	–	–	NCCCn1cc(-c2ccc(OC(F)(F)F)cc2)c2cc(CN3CCN(S(=O)(=O)c4ccccc4Cl)CC3)ccc21 [C14; HCl]	≤ 5 µM	–
≤ 5 µM	≤ 5 µM	–	–	NC1CCC(c2cn(-c3ccc(OC(F)(F)F)cc3)c3cc(CN4CCN(Cc5c(Cl)cccc5Cl)CC4)ccc23)C1 (stereo not drawn) [C30; HCl]	≤ 5 µM	–
≤ 5 µM	≤ 5 µM	–	–	NCCCn1cc(-c2ccc(OC(F)(F)F)cc2)c2cc(CN3CCN(Cc4cccc(F)c4Cl)CC3)ccc21 [C19; HCl]	≤ 5 µM	–
> 30 µM	10 to 30 µM	–	–	CN(C)Cc1ccc2c(c1)c(-c1ccc(OC(F)(F)F)cc1)cn2CCCNC(=O)C1(N)CCNCC1 [C29; HCl]	10 to 30 µM	–
–	≤ 5 µM	≤ 5 µM	–	OCCNCCCn1cc(-c2ccc(OC(F)(F)F)cc2)c2cc(CN3CCN(Cc4c(Cl)cccc4Cl)CC3)ccc21 [Compound C20, 2-(3-(5-((4-(2,6-dichlorobenzyl)piperazin-1-yl)methyl)-3-(4-(trifluoromethoxy)phenyl)-1H-indol-1-yl)propylamino)ethanol]	–	≤ 5 µM
≤ 5 µM	≤ 5 µM	–	–	NCCCn1cc(-c2ccc(N)cc2)c2cc(CN3CCN(Cc4c(Cl)cccc4Cl)CC3)ccc21 [C50; HCl]	≤ 5 µM	–
10 to 30 µM	10 to 30 µM	–	–	CCN1CCN(Cc2ccc3c(c2)c(-c2ccc(OC(F)(F)F)cc2)cn3CCCNC(=O)C2(N)CCNCC2)CC1 [C27; HCl]	> 30 µM	–
≤ 5 µM	≤ 5 µM	–	–	Cc1ccc(-c2cn(CCCNC(=O)C3(N)CCNCC3)c3ccc(CN4CCN(Cc5c(Cl)cccc5Cl)CC4)cc23)cc1 [C39; HCl]	≤ 5 µM	–
≤ 5 µM	–	–	≤ 5 µM	FC(F)(F)Oc1ccc(-c2cn(C3CCNC3)c3ccc(CN4CCN(Cc5ccccc5Cl)CC4)cc23)cc1 (stereo not drawn) [C197; HCl]	≤ 5 µM	–
5 to 10 µM	–	–	5 to 10 µM	NCCCn1cc(-c2ccc(CCN)cc2)c2cc(CN3CCN(Cc4ccccc4Cl)CC3)ccc21 [C188; HCl]	5 to 10 µM	–
≤ 5 µM	–	–	≤ 5 µM	NCCCn1nc2ccc(CN3CCN(Cc4ccccc4Cl)CC3)cc2c1-c1ccc(OC(F)(F)F)cc1 [C182; HCl]	≤ 5 µM	–
≤ 5 µM	–	–	≤ 5 µM	NCCCn1cc(-c2ccc(OC(F)(F)F)cc2CN)c2cc(CN3CCC(Nc4cccc(Cl)c4)CC3)ccc21 [C247; HCl]	≤ 5 µM	–
≤ 5 µM	–	–	≤ 5 µM	Cn1nccc1CN1CCN(Cc2ccc3c(c2)c(-c2ccc(OC(F)(F)F)cc2)cn3CCCN)CC1 [C128; HCl]	≤ 5 µM	–
5 to 10 µM	–	–	5 to 10 µM	NCCCn1cc(-c2ccc(OC(F)(F)F)cc2)c2cc(CN3CCC(NCC(F)(F)F)CC3)ccc21 [C233; HCl]	≤ 5 µM	–
≤ 5 µM	–	–	≤ 5 µM	NCCCn1cc(-c2ccc(OC(F)(F)F)cc2)c2cc(CN3CCC(O)CC3)ccc21 [C295; HCl]	≤ 5 µM	–
≤ 5 µM	–	–	≤ 5 µM	CCC1CCN(Cc2ccc3c(c2)c(-c2ccc(OC(F)(F)F)cc2)cn3CCCN)CC1 [C226; HCl]	≤ 5 µM	–
5 to 10 µM	–	–	5 to 10 µM	NCCCn1cc(-c2ccc(OC(F)(F)F)cc2)c2cc(OC3CCN(Cc4ccccc4Cl)CC3)ccc21 [C242; HCl]	5 to 10 µM	–
≤ 5 µM	–	–	≤ 5 µM	NCCCn1cc(-c2ccc(OC(F)(F)F)cc2CN)c2cc(CN3CCC(Nc4ccccc4Cl)CC3)ccc21 [C241; HCl]	≤ 5 µM	–
